PMC10106456 (Communications Biology, 2023)
Values joined by “and” are separate entries in the source; they are usually repeats but may differ in a detail not shown here. Identical values can stand only once. Like-named read-outs stand apart in the source and are kept apart here.

Legend:
[1] = tested on: E. coli expressing Tet(X6); assay type: cell-based; conditions: pZE24-tetX6, panel concentrations in μg/mL per Supp. Data 3
Protocol: (§1) For high expression, 1 mM IPTG fully relieves repression by LacI[44] thus only IPTG was used in whole-cell tests. Chemically-competent E. coli DH5αZ1 (Expressys) was transformed with these pZE24 constructs by heat shock. Minimum inhibitory concentrations (MICs) were measured as per Clinical and Laboratory Standards Institute (CLSI) guidelines. Substrates and inhibitors were dissolved in DMSO (20 mg/mL) then diluted to working concentrations in cation-adjusted Mueller-Hinton II broth supplemented with 50 μg/mL kanamycin (Supplementary Data 2). Antibiotic susceptibility testing panels were prepared in 96-well flat-bottom microplates (Corning) by two-fold serial dilution of the antibiotic of interest (Supplementary Data 3). […] Liquid cultures of each strain were grown to exponential phase then diluted to a standard concentration (OD600 = 0.0015, which is equivalent to double ~5 × 10^5 CFU/mL) and inoculated into each panel at a 1:1 ratio. […] Each strain-antibiotic/inhibitor combination was tested in triplicate, along with no-drug and no-cell controls. Inoculated panels were sealed with Breathe-Easy membranes (Sigma-Aldrich) and incubated at 37 °C for 20 h. MICs were scored by absorbance measurements at 600 nm (OD600) using the Synergy H1 microplate reader (Biotek Instruments, Inc).

[2] = molecular target: T1, Tet(X6) (Proteus genomosp. 6, UniProt A0A6I7DAX3); conditions: for Slope (initial velocity of substrate degradation): trials 1-3, absorbance 400 nm (440 nm for aTC)
T1 sequence (A0A6I7DAX3 entry or part of it): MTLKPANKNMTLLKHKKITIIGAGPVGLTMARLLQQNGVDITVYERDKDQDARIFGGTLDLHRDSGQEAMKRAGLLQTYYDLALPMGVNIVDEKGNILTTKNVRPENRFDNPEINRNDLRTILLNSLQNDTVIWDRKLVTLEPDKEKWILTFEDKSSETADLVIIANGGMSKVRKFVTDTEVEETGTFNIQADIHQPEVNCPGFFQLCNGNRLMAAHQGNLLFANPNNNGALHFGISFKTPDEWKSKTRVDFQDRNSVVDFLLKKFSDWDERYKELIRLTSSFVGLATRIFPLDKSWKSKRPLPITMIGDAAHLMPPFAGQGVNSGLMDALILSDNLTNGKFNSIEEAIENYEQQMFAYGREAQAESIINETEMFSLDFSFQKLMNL
Protocol: All experiments were prepared open to air in non-degassed buffer solutions at room temperature. […] Initial enzyme velocities were determined by linear regression using Agilent Cary WinUV Software over the linear range of the reaction (typically between 0 to 1 min), plotted against the concentration of the substrate, and fitted to the Michaelis–Menten or allosteric sigmoidal nonlinear regression equations using GraphPad Prism 6.

[3] = tested on: E. coli DH5αZ1 + pZE24-tet(X6); experiment: Microbroth dilution antibiotic susceptibility test (MIC); assay type: cell-based; conditions: Escherichia coli
Protocol: as §1

[4] = tested on: E. coli DH5αZ1 + pZE24-tet(X7); experiment: as above; assay type: cell-based; conditions: Escherichia coli, 20 h
Protocol: as §1

[5] = tested on: E. coli DH5αZ1 + pZE24 (empty); experiment: as above; assay type: cell-based; conditions: Escherichia coli, 20 h, drug alone
Protocol: as §1

[6] = molecular target: T1, Tet(X6); experiment: Substrate degradation by scanning optical absorbance spectroscopy; assay type: biochemical, Proteus genomospecies; conditions: in the presence of Tet(X6), NADPH, and O2; 20 μM substrate, 2 h
Protocol: (§2) All in vitro kinetic assays were prepared open to air in non-degassed buffer solutions at room temperature. […] In vitro reactions were monitored by optical absorbance spectroscopy on an Agilent Cary 50 UV-visible spectrophotometer using polystyrene cuvettes. Reaction progress was monitored by optical absorbance spectroscopy (280−550 nm, 1 nm and 5 min intervals) over 2 h. […] The quenched samples were centrifuged (5000 rpm, 4 °C) for 5 min, and 600 μL of the resulting supernatant was mixed with an Fmoc-Ala internal standard (3.12 μM final concentration) and analyzed by LC-MS in positive ion mode (single trial). LC-MS was acquired using an Agilent 6130 single quadrupole instrument (ESI + ) with G1313 autosampler, G1315 diode array detector, and 1200 series solvent module with separation on a Phenomenex Gemini C18 column, 50 × 2 mm (5 um) fit with a guard column cassette. LCMS solvents were 0.1% formic acid in H2O (A) and 0.1% formic acid in acetonitrile (B). […] LCMS data were processed using ChemStation software version B.04.02 SP1. Extracted ion chromatograms (EICs) for the expected [M + H]^+ molecular ions corresponding to substrate and mono-hydroxylated product were normalized to the [M + H]^+ counts for an Fmoc-Ala internal standard.

[7] = molecular target: T1, Tet(X6); experiment: Apparent Tet(X6) inhibitor IC50 (optical absorbance assay); assay type: biochemical, Proteus genomospecies; conditions: for IC50: Tet(X6); for Slope (velocity of substrate degradation in presence of aTC): trials 1-3
Protocol: All experiments were prepared open to air in non-degassed buffer solutions at room temperature. […] Initial enzyme velocities were determined by linear regression using Agilent Cary WinUV Software over the linear range of the reaction (typically between 0 to 1 min). The velocities were plotted against the logarithm of inhibitor concentration, and apparent IC50 values were determined using nonlinear regression analysis in GraphPad Prism v6. Each set of experiments included a no-TDase control reaction which was used as the full enzyme inhibition velocity and assigned to an inhibitor concentration of 1 × 10^15, as well as a no-inhibitor control which was assigned an inhibitor concentration of 1 × 10^–15.

[8] = molecular target: T1, Tet(X6); experiment: Substrate degradation by LC-MS (extracted ion counts); assay type: biochemical, Proteus genomospecies; conditions: Tet(X6) reaction of aTC
Protocol: as §2

[9] = tested on: E. coli DH5αZ1 pZE24-empty; experiment: Checkerboard whole cell inhibition assay (tetracycline + anhydrotetracycline); assay type: cell-based
Protocol: as §1

[10] = tested on: E. coli expressing Tet(X7); experiment: as above; assay type: cell-based; conditions: pZE24-tetX7, panel concentrations in μg/mL per Supp. Data 3
Protocol: as §1

SMILES: Cc1c2c(c(O)c3c(O)cccc13)C(=O)[C@]1(O)C(=O)C(C(N)=O)=C(O)[C@@H](N(C)C)[C@@H]1C2 [aTC, anhydrotetracycline]
- ATC concentration inhibiting growth at fixed TET (Fig3a source data) ([1]; TET 0): 32
- ATC concentration inhibiting growth at fixed TET (Fig3a source data) ([1]; TET 1): 32
- ATC concentration inhibiting growth at fixed TET (Fig3a source data) ([1]; TET 2): 32
- ATC concentration inhibiting growth at fixed TET (Fig3a source data) ([1]; TET 4): 32
- ATC concentration inhibiting growth at fixed TET (Fig3a source data) ([1]; TET 8): 32
- ATC concentration inhibiting growth at fixed TET (Fig3a source data) ([1]; TET 16): 16
- ATC concentration inhibiting growth at fixed TET (Fig3a source data) ([1]; TET 32): 16
- ATC concentration inhibiting growth at fixed TET (Fig3a source data) ([1]; TET 64): 16
- ATC concentration inhibiting growth at fixed TET (Fig3a source data) ([1]; TET 128): 8
- ATC concentration inhibiting growth at fixed TET (Fig3a source data) ([1]; TET 256): 0
- factor by which apparent kcat is lower than for tetracycline antibiotic substrates ([2]; Tet(X6)): ≤ 7
- Slope (initial velocity of substrate degradation) ([2]; [Sub] 1.94805 μM): 0.0038 and 0.0045 and 0.003
- Slope (initial velocity of substrate degradation) ([2]; [Sub] 3.8961 μM): 0.0098 and 0.0073 and 0.0072
- Slope (initial velocity of substrate degradation) ([2]; [Sub] 6.16883 μM): 0.0097 and 0.0093 and 0.009
- Slope (initial velocity of substrate degradation) ([2]; [Sub] 8.11688 μM): 0.0054 and 0.0074 and 0.0086
- Slope (initial velocity of substrate degradation) ([2]; [Sub] 20.1299 μM): 0.0109 and 0.0073 and 0.0099
- Slope (initial velocity of substrate degradation) ([2]; [Sub] 29.8701 μM): 0.0108 and 0.0104 and 0.0106
- Michaelis-menten nonlinear fit, best-fit Vmax ([2]; supplementary source data, Tet(X6) 0.4 µM): 0.01106
- MIC [3]: 32 µg/mL
- MIC [4]: 8 µg/mL
- MIC [5]: 4 µg/mL
- degradation observed by optical absorbance [6]: time-dependent decrease at 440 nm
- IC50 ([7]; IC50, aTC inhibition of ERA degradation, substrate ERA): 9 ± 1 µM
- IC50 ([7]; IC50, aTC inhibition of OMA degradation, substrate OMA): 12 ± 4 µM
- IC50 ([7]; IC50, aTC inhibition of TIG degradation, substrate TIG): 2.2 ± 0.2 µM
- Slope (velocity of substrate degradation in presence of aTC) ([7]; substrate Erav, log[aTC] μM 0.81): 0.0443 and 0.0431 and 0.045
- Slope (velocity of substrate degradation in presence of aTC) ([7]; substrate Erav, log[aTC] μM 1.41): 0.0266 and 0.0254 and 0.0225
- Slope (velocity of substrate degradation in presence of aTC) ([7]; substrate Erav, log[aTC] μM 1.72): 0.0176 and 0.0178 and 0.0199
- Slope (velocity of substrate degradation in presence of aTC) ([7]; substrate Erav, log[aTC] μM 2.07): 0.0149 and 0.0154 and 0.0125
- Slope (velocity of substrate degradation in presence of aTC) ([7]; substrate Erav, log[aTC] μM 2.16): 0.007 and 0.0075 and 0.0083
- Slope (velocity of substrate degradation in presence of aTC) ([7]; substrate Omad, log[aTC] μM 0.81): 0.0132 and 0.0149 and 0.0223
- Slope (velocity of substrate degradation in presence of aTC) ([7]; substrate Omad, log[aTC] μM 1.41): 0.0111 and 0.0097 and 0.0109
- Slope (velocity of substrate degradation in presence of aTC) ([7]; substrate Omad, log[aTC] μM 1.72): 0.0072 and 0.0051 and 0.0089
- Slope (velocity of substrate degradation in presence of aTC) ([7]; substrate Omad, log[aTC] μM 2.16): 0.0042 and 0.007 and 0.0037
- Slope (velocity of substrate degradation in presence of aTC) ([7]; substrate Tig, log[aTC] μM 0.81): 0.0454 and 0.0455 and 0.0453
- Slope (velocity of substrate degradation in presence of aTC) ([7]; substrate Tig, log[aTC] μM 1.41): 0.0221 and 0.024 and 0.0233
- Slope (velocity of substrate degradation in presence of aTC) ([7]; substrate Tig, log[aTC] μM 1.72): 0.0213 and 0.0168 and 0.0171
- Slope (velocity of substrate degradation in presence of aTC) ([7]; substrate Tig, log[aTC] μM 2.07): 0.0168 and 0.0154 and 0.0122
- Slope (velocity of substrate degradation in presence of aTC) ([7]; substrate Tig, log[aTC] μM 2.16): 0.0135 and 0.0131 and 0.0184
- Percent Ion Count (relative %) ([8]; time 0 min): 100%
- Percent Ion Count (relative %) ([8]; time 5 min): 95.7447%
- Percent Ion Count (relative %) ([8]; time 30 min): 80%
- Percent Ion Count (relative %) ([8]; time 60 min): 64.9123%
- Percent Ion Count (relative %) ([8]; time 90 min): 74.5098%
- Percent Ion Count (relative %) ([8]; time 120 min): 75.7895%
- ATC concentration inhibiting growth at fixed TET (Fig3a source data) ([9]; TET 0, panel concentrations in μg/mL per Supp. Data 3): 4
- ATC concentration inhibiting growth at fixed TET (Fig3a source data) ([9]; TET 1, panel concentrations in μg/mL per Supp. Data 3): 0
- ATC concentration inhibiting growth at fixed TET (Fig3a source data) ([10]; TET 0): 8
- ATC concentration inhibiting growth at fixed TET (Fig3a source data) ([10]; TET 1): 8
- ATC concentration inhibiting growth at fixed TET (Fig3a source data) ([10]; TET 2): 4
- ATC concentration inhibiting growth at fixed TET (Fig3a source data) ([10]; TET 4): 4
- ATC concentration inhibiting growth at fixed TET (Fig3a source data) ([10]; TET 8): 2
- ATC concentration inhibiting growth at fixed TET (Fig3a source data) ([10]; TET 16): 0.5
- ATC concentration inhibiting growth at fixed TET (Fig3a source data) ([10]; TET 32): 0
